Several values for one entry are separate records, joined by “and”; a condition that tells them apart may be missing. Identical values can stand only once. Like-named read-outs stand apart in the source and are kept apart here.
Test: Brain-to-plasma ratio of Compound C after oral gavage or intranasal administration (Example 5)
Type: in vivo, Sprague-Dawley rats
Settings: for concentration at 10 min / concentration at 30 min / concentration at 60 min / Kp at […] / Kp at 0.5 h / Kp at 1 h: Sprague-Dawley
Protocol: Three treatment groups of nine rats each were used (see Study Design, Table 9). […] The animals were housed up to three per cage and identified by cage labels. A single room was used for this study. […] Food was withheld from the animals for a minimum of 12 hours before the study and during the study, and was returned at 4 hours post-dose. Water was supplied ad libitum during the study.
All dosing solutions were prepared in isotonic PBS (phosphate buffered saline) buffer at pH 7.4. […] For intranasal dosing, the animals were anesthetized with CO2 prior to dosing, and the solution was administered in a 25 μL droplet from a pipette.
For each treatment group, brain and plasma samples were collected at 10, 30 and 60 minutes post-dose. Blood samples were placed in heparinized tubles and spun at 13,000 rpm for 5 minutes. The plasma was placed in polyethylene tubes and frozen (−60 to −80° C.). Brain samples were also placed in chilled tubes and frozen (−60 to −80° C.). Samples remained chilled during subsequent processing.
Brain samples were thawed and weighed. […] After homogenation, the volume of each sample was recorded and the samples were frozen at −80° C. until analysis.
Plastic tubes were used for all steps. Standards were prepared at concentrations of 1000, 500, 250, 100, 50, 10, 5, and 1 ng/mL by serial dilution. Quality control samples were also prepared at 500, 100, and 5 ng/mL. […] Brain standards and quality control samples were treated identically to the test compound samples.
(§1) Brain samples (200 μL) were loaded onto a 96 well plate and then transferred to 400 μL of acetonitrile containing internal standard (100 ng/mL Pindolol) in a Sirocco Protein Precipitation Plate (Waters Corporation). The resulting suspensions were mixed, then filtered into a clean 96-well collection plate using a vacuum and transferred (100 μL) to plastic HPLC vials for analysis.
as §1, with “(50” for “(200”, “150” for “400”

[1] = 1 mg/kg intranasal dose, 10 min
[2] = 1 mg/kg intranasal dose, 30 min
[3] = 1 mg/kg intranasal dose, 60 min
[4] = 5 mg/kg intranasal dose, 10 min
[5] = 5 mg/kg intranasal dose, 60 min

SMILES: CN[C@@H](C)C/C=C/c1cncc(OC(C)C)c1 [Compound C, (2S)-(4E)-N-methyl-5-(3-(5-isopropoxypyridin)yl)-4-penten-2-amine]
- Brain-to-Plasma Ratio [1]: 1.55 and 1.68
- Mean Ratio (brain-to-plasma) [1]: 1.97
- Brain-to-Plasma Ratio [2]: 1.69 and 2.36
- Mean Ratio (brain-to-plasma) [2]: 2.27
- Plasma Conc. [2]: 0.118 µg/mL and 0.0868 µg/mL
- Brain-to-Plasma Ratio [3]: 1.86 and 2.57
- Mean Ratio (brain-to-plasma) [3]: 2.12
- Plasma Conc. [3]: 0.066 µg/mL and 0.0378 µg/mL
- Brain-to-Plasma Ratio [4]: 0.99
- Plasma Conc. [4]: 1.57 µg/mL and 1.7 µg/mL
- Brain-to-Plasma Ratio (5 mg/kg intranasal dose, 30 min): 3.58 and 2.11
- Brain-to-Plasma Ratio [5]: 3.26 and 1.95
- Mean Ratio (brain-to-plasma) [5]: 2.41
- Plasma Conc. [5]: 0.175 µg/mL and 0.119 µg/mL
- Brain-to-Plasma Ratio (5 mg/kg oral dose, 30 min): 2.65 and 1.67
- Mean Ratio (brain-to-plasma) (5 mg/kg oral dose, 30 min): 2.21
- Brain-to-Plasma Ratio (5 mg/kg oral dose, 60 min): 3.95
- Mean Ratio (brain-to-plasma) (5 mg/kg oral dose, 60 min): 3.55
- 5 mg/kg IN/5 mg/kg PO, Brain (30 min): 1.0
- 5 mg/kg IN/5 mg/kg PO, Plasma (30 min): 0.7
- 5 mg/kg IN/5 mg/kg PO, Brain (60 min): 0.7
- 5 mg/kg IN/5 mg/kg PO, Plasma (60 min): 1.0
- concentration at 10 min (rat, brain homogenate, oral, 5 mg/kg, 5 mg/kg oral dose, 10 min, read-out: Brain Conc.): 0.0454 µg/mL
- concentration at 30 min (rat, brain homogenate, oral, 5 mg/kg, 5 mg/kg oral dose, 30 min, read-out: Brain Conc.): 0.205 µg/mL
- concentration at 10 min (rat, brain homogenate, other: intranasal, 1 mg/kg, 1 mg/kg intranasal dose, 10 min, read-out: Brain Conc.): 0.0476 µg/mL
- concentration at 30 min (rat, brain homogenate, other: intranasal, 1 mg/kg, 1 mg/kg intranasal dose, 30 min, read-out: Brain Conc.): 0.0437 µg/mL
- concentration at 60 min (rat, brain homogenate, other: intranasal, 1 mg/kg, 1 mg/kg intranasal dose, 60 min, read-out: Brain Conc.): 0.0177 µg/mL
- concentration at 10 min (rat, brain homogenate, other: intranasal, 5 mg/kg, 5 mg/kg intranasal dose, 10 min, read-out: Brain Conc.): 0.269 µg/mL
- Kp at […] (rat, brain, inhaled or intranasal, 1 mg/kg, 1 mg/kg intranasal dose, 10 min, read-out: Mean Ratio (brain-to-plasma)): 2
- Kp at 0.5 h (rat, brain, inhaled or intranasal, 1 mg/kg, 1 mg/kg intranasal dose, 30 min, read-out: Mean Ratio (brain-to-plasma)): 2.8
- Kp at 1 h (rat, brain, inhaled or intranasal, 1 mg/kg, 1 mg/kg intranasal dose, 60 min, read-out: Mean Ratio (brain-to-plasma)): 2.4
- Kp at […] (rat, brain, inhaled or intranasal, 5 mg/kg, 5 mg/kg intranasal dose, 10 min, read-out: Mean Ratio (brain-to-plasma)): 1.2
- Kp at 0.5 h (rat, brain, inhaled or intranasal, 5 mg/kg, 5 mg/kg intranasal dose, 30 min, read-out: Mean Ratio (brain-to-plasma)): 2.8
- Kp at 1 h (rat, brain, inhaled or intranasal, 5 mg/kg, 5 mg/kg intranasal dose, 60 min, read-out: Mean Ratio (brain-to-plasma)): 2.4
- concentration at 10 min (rat, brain, oral, 5 mg/kg, 5 mg/kg oral dose, 10 min, read-out: Brain Conc.): 227 ng/g
- concentration at 30 min (rat, brain, oral, 5 mg/kg, 5 mg/kg oral dose, 30 min, read-out: Brain Conc.): 1020 ng/g
- concentration at 10 min (rat, brain, other: intranasal, 1 mg/kg, 1 mg/kg intranasal dose, 10 min, read-out: Brain Conc.): 238 ng/g
- concentration at 30 min (rat, brain, other: intranasal, 1 mg/kg, 1 mg/kg intranasal dose, 30 min, read-out: Brain Conc.): 219 ng/g
- concentration at 60 min (rat, brain, other: intranasal, 1 mg/kg, 1 mg/kg intranasal dose, 60 min, read-out: Brain Conc.): 89 ng/g
- concentration at 10 min (rat, brain, other: intranasal, 1 mg/kg, intranasal 1 mg/kg, 10 minutes, read-out: Average brain levels): 136 ng/g
- concentration at 30 min (rat, brain, other: intranasal, 1 mg/kg, intranasal 1 mg/kg, 30 minutes, read-out: Average brain levels): 95 ng/g
- concentration at 60 min (rat, brain, other: intranasal, 1 mg/kg, intranasal 1 mg/kg, 60 minutes, read-out: Average brain levels): 50 ng/g
- concentration at 10 min (rat, brain, other: intranasal, 5 mg/kg, 5 mg/kg intranasal dose, 10 min, read-out: Brain Conc.): 1340 ng/g
- concentration at 10 min (rat, brain, other: intranasal, 5 mg/kg, intranasal 5 mg/kg, 10 minutes, read-out: Average brain levels): 1750 ng/g
- concentration at 30 min (rat, brain, other: intranasal, 5 mg/kg, intranasal 5 mg/kg, 30 minutes, read-out: Average brain levels): 1160 ng/g
- concentration at 60 min (rat, brain, other: intranasal, 5 mg/kg, intranasal 5 mg/kg, 60 minutes, read-out: Average brain levels): 382 ng/g
- concentration at 10 min (rat, brain, po, 5 mg/kg, oral gavage 5 mg/kg, 10 minutes, read-out: Average brain levels): 225 ng/g
- concentration at 30 min (rat, brain, po, 5 mg/kg, oral gavage 5 mg/kg, 30 minutes, read-out: Average brain levels): 1170 ng/g
- concentration at 60 min (rat, brain, po, 5 mg/kg, oral gavage 5 mg/kg, 60 minutes, read-out: Average brain levels): 571 ng/g
- Kp at […] (rat, brain/plasma, inhaled or intranasal, 1 mg/kg, 1 mg/kg intranasal dose, 10 min, read-out: Brain-to-Plasma Ratio): 2.7
- Kp at 0.5 h (rat, brain/plasma, inhaled or intranasal, 1 mg/kg, 1 mg/kg intranasal dose, 30 min, read-out: Brain-to-Plasma Ratio): 2.78
- Kp at 1 h (rat, brain/plasma, inhaled or intranasal, 1 mg/kg, 1 mg/kg intranasal dose, 60 min, read-out: Brain-to-Plasma Ratio): 1.92
- Kp at […] (rat, brain/plasma, inhaled or intranasal, 5 mg/kg, 5 mg/kg intranasal dose, 10 min, read-out: Brain-to-Plasma Ratio): 1.42
- Kp at 0.5 h (rat, brain/plasma, inhaled or intranasal, 5 mg/kg, 5 mg/kg intranasal dose, 30 min, read-out: Brain-to-Plasma Ratio): 2.63
- Kp at 1 h (rat, brain/plasma, inhaled or intranasal, 5 mg/kg, 5 mg/kg intranasal dose, 60 min, read-out: Brain-to-Plasma Ratio): 2.03
- Kp at […] (rat, brain/plasma, po, 5 mg/kg, 5 mg/kg oral dose, 10 min, read-out: Mean Ratio (brain-to-plasma)): 0.8
- Kp at 0.5 h (rat, brain/plasma, po, 5 mg/kg, 5 mg/kg oral dose, 30 min, read-out: Brain-to-Plasma Ratio): 2.31
- Kp at 0.5 h (rat, brain/plasma, po, 5 mg/kg, 5 mg/kg oral dose, 30 min, read-out: Mean Ratio (brain-to-plasma)): 2.2
- Kp at 1 h (rat, brain/plasma, po, 5 mg/kg, 5 mg/kg oral dose, 60 min, read-out: Brain-to-Plasma Ratio): 3.89
- Kp at 1 h (rat, brain/plasma, po, 5 mg/kg, 5 mg/kg oral dose, 60 min, read-out: Mean Ratio (brain-to-plasma)): 3.5
- Kp at […] (rat, brain/plasma, po, 5 mg/kg, 10 min, read-out: 5 mg/kg IN/5 mg/kg PO, Ratio (brain to plasma)): 1.5
- Kp at 0.5 h (rat, brain/plasma, po, 5 mg/kg, 30 min, read-out: 5 mg/kg IN/5 mg/kg PO, Ratio (brain to plasma)): 1.3
- Kp at 1 h (rat, brain/plasma, po, 5 mg/kg, 60 min, read-out: 5 mg/kg IN/5 mg/kg PO, Ratio (brain to plasma)): 0.7
- concentration at 30 min (rat, plasma, other: intranasal, 1 mg/kg, 1 mg/kg intranasal dose, 30 min, read-out: Plasma Conc.): 0.0787 µg/mL
- concentration at 60 min (rat, plasma, other: intranasal, 1 mg/kg, 1 mg/kg intranasal dose, 60 min, read-out: Plasma Conc.): 0.046 µg/mL
- concentration at 10 min (rat, plasma, other: intranasal, 1 mg/kg, intranasal 1 mg/kg, 10 minutes, read-out: Average plasma levels): 0.25 µg/mL
- concentration at 30 min (rat, plasma, other: intranasal, 1 mg/kg, intranasal 1 mg/kg, 30 minutes, read-out: Average plasma levels): 0.208 µg/mL
- concentration at 60 min (rat, plasma, other: intranasal, 1 mg/kg, intranasal 1 mg/kg, 60 minutes, read-out: Average plasma levels): 0.103 µg/mL
- concentration at 10 min (rat, plasma, other: intranasal, 5 mg/kg, 5 mg/kg intranasal dose, 10 min, read-out: Plasma Conc.): 1.12 µg/mL
- concentration at 60 min (rat, plasma, other: intranasal, 5 mg/kg, 5 mg/kg intranasal dose, 60 min, read-out: Plasma Conc.): 0.17 µg/mL
- concentration at 10 min (rat, plasma, other: intranasal, 5 mg/kg, intranasal 5 mg/kg, 10 minutes, read-out: Average plasma levels): 1.46 µg/mL
- concentration at 30 min (rat, plasma, other: intranasal, 5 mg/kg, intranasal 5 mg/kg, 30 minutes, read-out: Average plasma levels): 0.421 µg/mL
- concentration at 60 min (rat, plasma, other: intranasal, 5 mg/kg, intranasal 5 mg/kg, 60 minutes, read-out: Average plasma levels): 0.155 µg/mL
- concentration at 10 min (rat, plasma, po, 5 mg/kg, oral gavage 5 mg/kg, 10 minutes, read-out: Average plasma levels): 0.312 µg/mL
- concentration at 30 min (rat, plasma, po, 5 mg/kg, oral gavage 5 mg/kg, 30 minutes, read-out: Average plasma levels): 0.578 µg/mL
- concentration at 60 min (rat, plasma, po, 5 mg/kg, oral gavage 5 mg/kg, 60 minutes, read-out: Average plasma levels): 0.155 µg/mL
- Intranasal absorption into the brain and bloodstream compared with oral administration (rat, in vivo, po): much faster
